Data published in paper PMC6982741, “Design, Synthesis and Study of Nitrogen Monoxide Donors as Potent Hypolipidaemic and Anti-Inflammatory Agents” (Molecules, 2019).
Where two headings read alike, the source gives them in different places. Marks after values point to notes of the source that are not given here.

Assays:
[1] = system: carrageenan-induced rat paw oedema; assay: Carrageenan-induced rat paw oedema; type: in vivo, Wistar rats; conditions: 0.15 mmol/kg i.p., oedema after 3.5 h, vs carrageenan-only controls; for inhibition in vivo at 150 µmol/kg: Rattus norvegicus, ip, read-out: % Oedema Reduction
Experimental: The carrageenan-induced paw oedema is a well-known and widely used model of acute inflammation. The response to carrageenan inflammation may be divided into three phases. In the first phase (after 1.5 h), histamine and serotonin are released, the second phase (1.5–2.5 h after carrageenan administration) is mediated by kinins, whereas, in the third phase, more than two hours post administration, neutrophil infiltration, prostaglandin production and release of pro-inflammatory cytokines are involved. In this work, oedema was measured 3.5 h post injection.
κ-Carrageenan and lipoxygenase type I-B from soybean were purchased from Sigma (St. Louis, MO, U.S.A.).
The tested compounds (in water with a few drops of Tween 80) were given i.p. (0.15 mmol/kg) to rats, just after the i.d. injection of 0.1 mL of an aqueous carrageenan solution (1% w/v) in the hind paw of rats. The produced oedema, after 3.5 h, was estimated as paw weight increase.

hyperlipidaemic rats = assay: Triton WR1339 (tyloxapol) induced hyperlipidaemia in rats; type: in vivo, Wistar rats; conditions: tyloxapol 200 mg/kg i.p.; for inhibition in vivo at 500 µmol/kg / inhibition in vivo at 150 µmol/kg / inhibition in vivo at 300 µmol/kg: Rattus norvegicus, ip, 24 h; for inhibition in vivo at 500 µmol/kg: 500 μmol/kg i.p.; for inhibition in vivo at 300 µmol/kg: 300 μmol/kg i.p.
Excerpt: The pleiotropic effects of statins, used as hypolipidaemic drugs, include antioxidant ability and direct increase of eNOS activity, in addition to inhibition of 3-hydroxy-3-methylglutaryl coenzyme A (HMG-CoA) reductase. […] The systemic administration of Triton-WR1339 (tyloxapol) to rats induces a biphasic elevation of plasma cholesterol, atherogenic VLDL cholesterol and LDL cholesterol, as well as triglyceride levels. […] Agents shown to be active in phase I are considered to interfere with cholesterol biosynthesis.
κ-Carrageenan and lipoxygenase type I-B from soybean were purchased from Sigma (St. Louis, MO, U.S.A.). For the in vivo experiments, Wistar rats (180–220 g, 3–4 months old) were kept in the Centre of the School of Veterinary Medicine (EL54 BIO42), Aristotelian University of Thessaloniki, which is registered by the official state veterinary authorities (presidential degree 56/2013, in harmonization with the European Directive 2010/63/EEC). The experimental protocols were approved by the Animal Ethics Committee of the Prefecture of Central Macedonia (no. 270079/2500).
Hyperlipidaemia was induced by the i.p. administration of Triton WR 1339 (200 mg/kg) to rats. […] Blood was taken from the aorta after 24 h, for the determination of plasma total cholesterol, LDL-cholesterol and triglyceride concentrations, using commercial kits.

[2] = In vitro nitrogen monoxide release (Griess reagent)
Experimental: Due to their poor aqueous solubility, compounds 1, 3-7 and 9 were dissolved in 7/3 (v/v) mixture of DMSO/water at various concentrations and incubated overnight at room temperature in the presence of cadmium. S-nitroso-N-acetylpenicillamine (SNAP) was dissolved either in DMSO/water 7/3 or in water and treated as above.
Aliquots were taken from each sample and added to an equal volume of N-naphthylaminoethylamine (0.2%) and sulfanilamide (2%) solution in 3 N hydrochloric acid (Griess reagent). Appropriate sodium nitrite solutions in the same DMSO/water mixture were used for the construction of the standard curve and values were identical to those obtained with aqueous solutions. Nitric oxide release was estimated spectrophotometrically (540 nm).

soybean lipoxygenase 1-B = target: T1, soybean lipoxygenase 1-B (Glycine max, UniProt P08170); assay: In vitro soybean lipoxygenase inhibition, linoleate as substrate; type: biochemical; conditions: sodium linoleate 100 μM; after 7 min of incubation; pH 9.0, 28 °C
T1 construct: purchased Sigma (St. Louis, MO, U.S.A.)
T1 sequence (P08170 1-839): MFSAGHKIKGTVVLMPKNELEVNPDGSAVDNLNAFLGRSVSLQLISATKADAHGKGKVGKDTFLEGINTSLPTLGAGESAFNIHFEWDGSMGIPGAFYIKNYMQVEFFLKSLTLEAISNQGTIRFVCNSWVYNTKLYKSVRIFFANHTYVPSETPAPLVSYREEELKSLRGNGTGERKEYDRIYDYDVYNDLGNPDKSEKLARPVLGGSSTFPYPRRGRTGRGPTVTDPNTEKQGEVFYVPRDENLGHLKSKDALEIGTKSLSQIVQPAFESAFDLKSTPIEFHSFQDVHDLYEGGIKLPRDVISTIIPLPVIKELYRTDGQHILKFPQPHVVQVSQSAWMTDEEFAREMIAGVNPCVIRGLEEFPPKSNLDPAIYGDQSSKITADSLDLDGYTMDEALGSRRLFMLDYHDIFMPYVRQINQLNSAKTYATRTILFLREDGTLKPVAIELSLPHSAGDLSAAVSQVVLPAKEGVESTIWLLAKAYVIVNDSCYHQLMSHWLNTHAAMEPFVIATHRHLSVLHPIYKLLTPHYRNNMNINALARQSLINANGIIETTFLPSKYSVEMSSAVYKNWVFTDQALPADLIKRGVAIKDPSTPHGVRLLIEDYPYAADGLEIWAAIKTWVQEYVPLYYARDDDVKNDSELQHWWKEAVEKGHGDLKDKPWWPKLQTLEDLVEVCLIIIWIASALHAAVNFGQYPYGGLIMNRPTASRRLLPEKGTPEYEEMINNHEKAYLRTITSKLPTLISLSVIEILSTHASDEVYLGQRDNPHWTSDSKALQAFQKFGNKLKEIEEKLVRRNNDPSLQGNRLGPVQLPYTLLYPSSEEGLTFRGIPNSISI
Experimental: The reaction mixture contained the examined compounds (in absolute ethanol, 1–300 μM), soybean lipoxygenase (in saline, 250 u/mL) and sodium linoleate (100 μM), in Tris–HCl buffer, pH 9.0. The reaction was monitored for 7 min at 28 °C, recording the absorbance at 234 nm. […]

[3] = read-out: % Reduction LDL-C (LDL cholesterol)
[4] = read-out: % Reduction TC (total cholesterol)
[5] = read-out: % Reduction TG (triglycerides)
[6] = 150 μmol/kg i.p., plasma after 24 h, read-out: % Reduction LDL-C (LDL cholesterol)
[7] = 150 μmol/kg i.p., plasma after 24 h, read-out: % Reduction TC (total cholesterol)
[8] = 150 μmol/kg i.p., plasma after 24 h, read-out: % Reduction TG (triglycerides)
[9] = compound 31.25 μM, DMSO/water 7/3, overnight, cadmium
[10] = compound 62.5 μM, DMSO/water 7/3, overnight, cadmium
[11] = compound 125 μM, DMSO/water 7/3, overnight, cadmium
[12] = compound 250 μM, DMSO/water 7/3, overnight, cadmium
[13] = compound 500 μM, DMSO/water 7/3, overnight, cadmium

| Compound | inhibition in vivo at 150 µmol/kg [1] | inhibition in vivo at 150 µmol/kg (hyperlipidaemic rats; [6]) | inhibition in vivo at 150 µmol/kg (hyperlipidaemic rats; [7]) | inhibition in vivo at 150 µmol/kg (hyperlipidaemic rats; [8]) | NO Release [2, 9] | NO Release [2, 10] | NO Release [2, 11] | NO Release [2, 12] | NO Release [2, 13] | IC50 (soybean lipoxygenase 1-B) | also measured |
| --- | --- | --- | --- | --- | --- | --- | --- | --- | --- | --- | --- |
| COc1ccc2c(c1)c(CC(=O)O)c(C)n2C(=O)c1ccc(Cl)cc1 [Indomethacin, reference compound] | 42% | – | – | – | – | – | – | – | – | – | – |
| COc1ccc2cc([C@H](C)C(=O)O)ccc2c1 [Naproxen, reference compound] | 11% | – | – | – | – | – | – | – | – | – | inhibition in vivo at 500 µmol/kg (hyperlipidaemic rats; [3]): 25.5%; inhibition in vivo at 500 µmol/kg (hyperlipidaemic rats; [4]): 53%; inhibition in vivo at 500 µmol/kg (hyperlipidaemic rats; [5]): 43.5% |
| CC(C(=O)OCCO[N+](=O)[O-])c1cccc(C(=O)c2ccccc2)c1 (racemic) [Compound 5, (±)-2-(Nitrooxy)ethyl 2-(3-benzoylphenyl)propanoate] | 75% | 57.8% | 46.6% | 40.2% | 4 μΜ | 11 μΜ | 26 μΜ | 57 μΜ | 100 μΜ | 86 µM | – |
| CCC(C)(C)C(=O)O[C@H]1C[C@@H](C)C=C2C=C[C@H](C)[C@H](CC[C@@H]3C[C@@H](O)CC(=O)O3)[C@H]21 [Simvastatin, reference compound] | – | 70% | – | – | – | – | – | – | – | – | % Reduction TG (triglycerides) (hyperlipidaemic rats; 150 μmol/kg i.p., plasma after 24 h): no effect |
| COc1ccc2cc(C(C)C(=O)OCCO[N+](=O)[O-])ccc2c1 (single isomer, unassigned; (+)) [Compound 4, (+)-2-(Nitrooxy)ethyl 2-(6-methoxynaphthalen-2-yl)propanoate] | 70% | 84.6% | 80% | 38.9% | 2.5 μΜ | 7 μΜ | 17 μΜ | 37 μΜ | 73 μΜ | > 300 µM | % Oedema Reduction [1]: 70 ** % |
| O=C(/C=C/c1ccccc1)OCCO[N+](=O)[O-] [Compound 6, (E)-2-(Nitrooxy)ethyl cinnamate] | 61% | 74.8% | 70.9% | 54.4% | 5 μΜ | 11 μΜ | 22 μΜ | 51 μΜ | 98 μΜ | 220 µM | – |
| CC(C)Cc1ccc(C(C)C(=O)O)cc1 (centres unmarked) [Ibuprofen, reference compound] | 36% | – | – | – | – | – | – | – | – | – | inhibition in vivo at 300 µmol/kg (hyperlipidaemic rats; [3]): 41.6%; inhibition in vivo at 300 µmol/kg (hyperlipidaemic rats; [4]): 41%; inhibition in vivo at 300 µmol/kg (hyperlipidaemic rats; [5]): 38% |
| CC(C)Cc1ccc(C(C)C(=O)OCCO[N+](=O)[O-])cc1 (racemic) [Compound 1, (±)-2-(Nitrooxy)ethyl 2-(4-isobutylphenyl)propanoate] | 76% | 80% | 62.2% | 30.1% | 7 μΜ | 17 μΜ | 40 μΜ | 82 μΜ | 116 μΜ | 46 µM | – |
| CC(C)Cc1ccc(C(C)C(=O)OCCc2ccc([N+](=O)[O-])cc2)cc1 (racemic) [Compound 2, (±)-4-Nitrophenethyl 2-(4-isobutylphenyl)propanoate] | 53% | – | – | – | – | – | – | – | – | 24 µM | – |
| S-nitroso-N-acetylpenicillamine [SNAP, reference compound] | – | – | – | – | – | – | – | – | – | – | NO Release ([2]; 100 μM compound, in water): 56.7 μΜ; NO Release ([2]; per 100 μM compound, DMSO/water 7/3): 56.3 μΜ |
